Laboratory results reported in PubChem BioAssay AID179 (DTP/NCI, 2004).
Values joined by “and” are separate entries in the source; they are usually repeats but may differ in a detail not shown here. Equal entries are not always repeated. Active and inactive are the calls of the source.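 Rule for the calls: active = compounds giving half or more protection of infected cells from virus-caused growth loss, again on retest; inactive = the rest.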

Tested on: CEM cells HIV-1 protection, formazan growth assay
Assay: NCI AIDS Antiviral Assay
Conditions: for IC50: measured here: growth of uninfected CEM cells
Summary of the method: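 Human CEM cells, uninfected and HIV-1-infected, exposed to five drug concentrations; growth measured by soluble formazan assay and scored as percent protection from infection, with protecting compounds retested.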

| SMILES | EC50 [µM] | IC50 | outcome |
| --- | --- | --- | --- |
| O=C(CCCC1Cc2ccccc2C1=O)c1ccccc1 (centres undefined) | > 200 | 91.2 µM | – |
| COc1ccc(C=C(Cl)Cl)cc1OC | > 200 | > 200 µM | – |
| CCC1OC2C(CC=C(C)C)=C3OC(C)(O)C(C)(CC)C(O)C3=C3OC(=O)C=C1C32 (centres undefined) | > 200 | 30.9 µM | – |
| CN(C)C1C(CO)OC(n2cnc3c(N)ncnc32)C1O (centres undefined) | > 200 | > 200 µM | – |
| Cc1ccc(C)c(NC(=O)CC/C(=N\NC(=O)C(N)=O)C(C)C(=O)c2ccc(O)cc2)c1 (centres undefined) | > 155 | > 155 µM | – |
| CC1CC/C(=C\c2ccc(N(C)C)cc2)C2=C1C(c1ccc(N(C)C)cc1)NC(=S)N2 (centres undefined) | > 100 | > 100 µM | – |
| O=C1CCC2(CC1CCSc1ccccc1)OCCO2 (centres undefined) | > 200 | 126 µM | – |
| NC(=O)C12CC3CC(CC(F)(C3)C1)C2 | > 1260 | > 1260 µM | – |
| Cc1ccc(/C=C2\Sc3scc(-c4ccccc4)[n+]3C2=O)cc1 | > 200 | 89.1 µM | – |
| O=C(O)CCC1(Br)CCCCC(Br)C1=O (centres undefined) | > 724 | 245 µM | – |
| N#CC(C(=O)/C(=N/NC(=O)c1ccccc1O)C(C#N)c1ccccc1)c1ccccc1 (centres undefined) | > 589 | 10.7 µM | – |
| COc1ccc(/C=C\c2cc(OC)c(OC)c(OC)c2)cc1OC(=O)CC(N)C(=O)O (centres undefined) | > 0.2 | 0.000309 µM | – |
| OC1(C#CCN2CCCC2)c2ccccc2Sc2ccccc21.[C-]#[O+].[C-]#[O+].[C-]#[O+].[C-]#[O+].[C-]#[O+].[C-]#[O+].[Co].[Co] | > 200 | 4.17 µM | – |
| C=CC1ON(C)CCc2cc(OC)c(OC)cc21 (centres undefined) | 162 | > 200 µM | – |
| COc1ccc(C2CC(c3ccc4ccccc4c3O)=NN2)cc1OC (centres undefined) | > 200 | 42.7 µM | – |
| COc1cc(/C=N\NS(=O)(=O)c2ccc([N+](=O)[O-])cc2)c([N+](=O)[O-])cc1OC | > 33.1 | > 33.1 µM | – |
| CN(C)c1ccc(-c2[nH]c(=O)c3ccccc3[n+]2C)cc1 | > 200 | 66.1 µM | – |
| S=c1sc(-c2ccc(Cl)cc2)nn1CSc1nc2ccccc2[nH]1 | > 200 | 31.6 µM | – |
| O=c1ccc2c(O)c3ccoc3cc2o1 | > 110 | 93.3 µM | – |
| CCc1c(Cc2ccccc2)n(COCCC[Se]c2ccccc2)c(=O)[nH]c1=O | 2.82 | 18.2 µM | – |
| O=c1[nH]cnc2c1ncn2CCCCO | – | – | inactive |
| CCCCc1nc(C)oc1C(C)C | > 200 | > 200 µM | – |

| SMILES | EC50 [µM] | IC50 | outcome |
| --- | --- | --- | --- |
| Cc1cccc2c(NCCCN(C)C)c3c([N+](=O)[O-])ccc(C)c3nc12 | > 2 | 0.162 µM | – |
| Cc1[nH]c(=O)n2c(C)nnc2c1C(=O)O | – | – | inactive |
| CN1C2CCC1CC(OC(=O)C1CCC(C(=O)OC3CC4CCC(C3)N4C)(c3ccccc3)c3ccccc31)C2 (centres undefined) | > 200 | 6.46 µM | – |
| CN(C)CC1=C(O)c2ccccc2C(=O)C1=O | > 1070 | > 1070 µM | – |
| Oc1c(C(Nc2cccc3cccnc23)c2ccccc2)ccc2cccnc12 (centres undefined) | > 3.8 | 0.933 µM | – |
| CSc1ccc(/C=C2/C[N+](C)(C)C/C(=C/c3ccc(SC)cc3)C2=O)cc1 | > 129 | 12.3 µM | – |
| Cc1ccc(N=Nc2c(S(=O)(=O)O)cc3cc(NC(=O)Nc4ccc5c(O)c(N=Nc6ccc7cc(S(=O)(=O)O)ccc7c6)c(S(=O)(=O)O)cc5c4)ccc3c2O)cc1 | – | – | active |
| O=C(O)c1cscc1Cc1ccccc1 | > 200 | > 200 µM | – |
| Cc1[se]c(N)nc1-c1ccccc1 | – | – | inactive |
| Cc1oc2nc(N(C)C)n3nnnc3c2c1C | – | – | inactive |
| CSC1C(=O)Nc2ccc3ccccc3c21 (centres undefined) | > 200 | 10.2 µM | – |
| Cc1nc(N)nc(N)c1N1CCN(c2ccc([N+](=O)[O-])cc2)CC1 | > 100 | 27.5 µM | – |
| c1ccc([C@H]2CN3CCSC3=N2)cc1 | > 200 | > 200 µM | – |
| CC(=O)[CH-]C(C)=O.CC(=O)[CH-]C(C)=O.[CH2-]CCC.[CH2-]CCC.[Sn+4] | > 60.3 | 0.661 µM | – |
| COC(=O)C(CCC1(C)OCCO1)C(C)=O (centres undefined) | 31.6 | 251 µM | – |
| CCCCCCCCOC(CO)CO | > 251 | > 251 µM | – |
| O=[N+]([O-])c1cc(Cc2cc(Cl)c(O)c([N+](=O)[O-])c2)cc(Cl)c1O | > 200 | 35.5 µM | – |
| C1CC2=C(C1)[Se]C(=C1Sc3nsnc3S1)[Se]2 | > 200 | 195 µM | – |
| CN1C2CCC1CC(OC(=O)C(CO)c1ccccc1)C2 (centres undefined) | > 200 | > 200 µM | – |
| CCCCCCn1c(SC)nc(COC(=O)NC)c1COC(=O)NC | > 200 | 35.5 µM | – |
| O=c1[nH]cnc2cccc(Cl)c12 | > 200 | > 200 µM | – |
| Cc1ccc(Cl)c(NC(=O)C(=O)C(C(=O)c2ccncc2)C2OC(=O)c3ccccc32)c1 (centres undefined) | > 562 | 166 µM | – |

| SMILES | EC50 [µM] | IC50 | outcome |
| --- | --- | --- | --- |
| C[C@@H]1C(=O)OCC2=C3C[C@@H](CC[C@@]3(C)C=CC2=O)[C@H](C)C(=O)OCC2=C3C[C@H]1CC[C@@]3(C)C=CC2=O | > 24.5 | 21.4 µM | – |
| Nc1ncnc2c1ncn2C1OC2CSCCC2(O)C1O (centres undefined) | > 200 | > 200 µM | – |
| Cc1nnc(N=Nc2c(O)[nH]c3c(Cl)cc(Cl)cc23)n1N | > 16.6 | > 16.6 µM | – |
| O=C1C2Nc3ccccc3SC2C(=O)N1c1cccc([N+](=O)[O-])c1 (centres undefined) | > 55 | > 55 µM | – |
| CCC(C)(O)c1cn(-c2ccc(S(=O)(=O)O)cc2)nn1 (centres undefined) | > 417 | > 417 µM | – |
| Cc1ccc(-c2cc(=O)c3cc(C)c(C)c(C(=O)O)c3o2)cc1 | – | – | inactive |
| COc1ccc(CC2NCCc3cc(OC)c(OC)cc32)cc1Br (centres undefined) | > 240 | 33.9 µM | – |
| O=c1[nH]c(=O)n(C2CC(O)C(CO)O2)cc1C#Cc1ccc(C(F)(F)F)cc1 (centres undefined) | > 631 | 91.2 µM | – |
| CN(C)c1ccc(/C=C(\NC(=O)c2ccccc2)C2NC(Cc3c[nH]c4ccccc34)C(=O)O2)cc1 (centres undefined) | > 100 | 8.71 µM | – |
| NC(=O)C1Cc2cc3c(cc21)OCO3 (centres undefined) | > 200 | > 200 µM | – |
| CCC(=O)NI1OC(=O)c2ccccc21 | > 200 | 81.3 µM | – |
| Nc1c2c(nc3ccccc13)CCCC2 (tested in a mixture with another compound) | > 4170 | 25.7 µM and 39.8 µM | – |
| O=[N+]([O-])c1cc(SSc2ccc(Cl)c([N+](=O)[O-])c2)ccc1Cl | > 60.3 | 13.2 µM | – |
| O=C1C(O)=C(O)C(=O)C(O)=C1O | > 200 | > 200 µM | – |
| CCCCCCCCCCCC1=c2o[nH]c2=C(c2ccccn2)C(=O)C1=O | > 19.5 | > 19.5 µM | – |
| CC(C)=CCC/C(C)=C/CC/C(C)=C/OP(=O)(O)OP(=O)(O)O | > 162 | > 162 µM | – |
| CC(=O)Oc1ccc2c(oc(=O)c3nc(C)oc32)c1C | > 200 | 145 µM | – |
| O=C(/C=C/c1ccc2c(c1)OCO2)c1cc(Cl)cc(Cl)c1O | – | – | inactive |
| CC1=C(C)CC2(SC1)C(=O)c1ccccc1C2=O | – | – | inactive |
| COc1ccccc1/C=C\C#N | > 85.1 | > 85.1 µM | – |
| CC(=O)O/C=C\OC1CCCC1(c1ccccc1)c1ccccc1 (centres undefined) | > 200 | 1.38 µM | – |
| CC1(C)OC(=O)c2cc(C(=CCCBr)c3cc(Cl)c4c(c3)C(=O)OC(C)(C)O4)cc(Cl)c2O1 | > 100 | 41.7 µM | – |
